# Measurements as given in ChEMBL document CHEMBL4219206, “Novel thioureido-benzenesulfonamide derivatives with enaminone linker as potent anticancer, radiosensitizers and VEGFR2 inhibitors” (Bioorg Med Chem Lett, 2018).
# System: HepG2
# Test: cells
# Conditions: Homo sapiens, HepG2, light or radiation study
# Description: Phototoxicity against human HepG2 cells assessed as reduction in cell viability pretreated for 2 hrs followed by 8 Gy gamma irradiation for 17.73 mins measured after 48 hrs by MTT assay
row,Structure (SMILES),IC50 [nM]
1,O=C(/C=C/Nc1ccccc1Cl)c1ccc(NC(=S)Nc2ccc(S(=O)(=O)Nc3ccccn3)cc2)cc1,250
2,CCOC(=O)c1ccc(N/C=C/C(=O)c2ccc(NC(=S)Nc3ccc(S(=O)(=O)Nc4ccccn4)cc3)cc2)cc1,390
3,CCOC(=O)N/C=C/C(=O)c1ccc(NC(=S)Nc2ccc(S(=O)(=O)Nc3ccccn3)cc2)cc1,70
4,Cc1ccc(C(=O)O)c(N/C=C/C(=O)c2ccc(NC(=S)Nc3ccc(S(=O)(=O)Nc4ccccn4)cc3)cc2)c1,300
5,O=C(/C=C/Nc1ccc(F)cc1)c1ccc(NC(=S)Nc2ccc(S(=O)(=O)Nc3ccccn3)cc2)cc1,230
6,COC(=O)/C=C(/C)N/C=C/C(=O)c1ccc(NC(=S)Nc2ccc(S(=O)(=O)Nc3ccccn3)cc2)cc1,160

# System: HepG2
# Test: cells
# Conditions: Homo sapiens, HepG2, 24 h
# Description: Antiproliferative activity against human HepG2 cells after 24 hrs by MTT assay
row,Structure (SMILES),IC50 [nM]
1,CCOC(=O)N/C=C/C(=O)c1cccc(NC(=S)Nc2ccc(S(=O)(=O)Nc3ccccn3)cc2)c1,1900
2,O=C(/C=C/Nc1ccccc1O)c1cccc(NC(=S)Nc2ccc(S(=O)(=O)Nc3ccccn3)cc2)c1,2900
3,O=C(/C=C/Nc1ccccc1)c1ccc(NC(=S)Nc2ccc(S(=O)(=O)Nc3ccccn3)cc2)cc1,3900
4,O=C(/C=C/Nc1ccc(F)cc1)c1cccc(NC(=S)Nc2ccc(S(=O)(=O)Nc3ccccn3)cc2)c1,1200
5,O=C(/C=C/NCc1ccccc1)c1ccc(NC(=S)Nc2ccc(S(=O)(=O)Nc3ccccn3)cc2)cc1,2300
6,O=C(/C=C/Nc1ccccc1)c1cccc(NC(=S)Nc2ccc(S(=O)(=O)Nc3ccccn3)cc2)c1,4700
7,O=C(/C=C/Nc1ccccc1O)c1ccc(NC(=S)Nc2ccc(S(=O)(=O)Nc3ccccn3)cc2)cc1,1400
8,O=C(/C=C/Nc1ccccc1Cl)c1ccc(NC(=S)Nc2ccc(S(=O)(=O)Nc3ccccn3)cc2)cc1,440
9,CCOC(=O)c1ccc(N/C=C/C(=O)c2ccc(NC(=S)Nc3ccc(S(=O)(=O)Nc4ccccn4)cc3)cc2)cc1,660
10,CCOC(=O)N/C=C/C(=O)c1ccc(NC(=S)Nc2ccc(S(=O)(=O)Nc3ccccn3)cc2)cc1,120
11,Cc1ccc(C(=O)O)c(N/C=C/C(=O)c2ccc(NC(=S)Nc3ccc(S(=O)(=O)Nc4ccccn4)cc3)cc2)c1,580
12,Cc1ccc(N/C=C/C(=O)c2cccc(NC(=S)Nc3ccc(S(=O)(=O)Nc4ccccn4)cc3)c2)c(C(=O)O)c1,1600
13,O=C(/C=C/Nc1ccc(F)cc1)c1ccc(NC(=S)Nc2ccc(S(=O)(=O)Nc3ccccn3)cc2)cc1,420
14,CN(C)/C=C/C(=O)c1ccc(NC(=S)Nc2ccc(S(=O)(=O)Nc3ccccn3)cc2)cc1,3500
15,O=C(/C=C/Nc1ccccn1)c1ccc(NC(=S)Nc2ccc(S(=O)(=O)Nc3ccccn3)cc2)cc1,3100
16,COC(=O)c1c(N/C=C/C(=O)c2cccc(NC(=S)Nc3ccc(S(=O)(=O)Nc4ccccn4)cc3)c2)sc(C)c1C,10800
17,Cc1c(N/C=C/C(=O)c2ccc(NC(=S)Nc3ccc(S(=O)(=O)Nc4ccccn4)cc3)cc2)c(=O)n(-c2ccccc2)n1C,8000
18,CCOC(=O)c1ccc(N/C=C/C(=O)c2cccc(NC(=S)Nc3ccc(S(=O)(=O)Nc4ccccn4)cc3)c2)cc1,1500
19,CC(=O)c1ccc(NC(=S)Nc2ccc(S(=O)(=O)Nc3ccccn3)cc2)cc1,6900
20,Cc1c(N/C=C/C(=O)c2cccc(NC(=S)Nc3ccc(S(=O)(=O)Nc4ccccn4)cc3)c2)c(=O)n(-c2ccccc2)n1C,11400
21,COC(=O)/C=C(/C)N/C=C/C(=O)c1ccc(NC(=S)Nc2ccc(S(=O)(=O)Nc3ccccn3)cc2)cc1,290
22,O=S(=O)(Nc1ccccn1)c1ccc(N=C=S)cc1,5500
23,COC(=O)c1c(N/C=C/C(=O)c2ccc(NC(=S)Nc3ccc(S(=O)(=O)Nc4ccccn4)cc3)cc2)sc(C)c1C,6200
24,O=C(/C=C/Nc1ccccc1Cl)c1cccc(NC(=S)Nc2ccc(S(=O)(=O)Nc3ccccn3)cc2)c1,500
25,CC(=O)c1cccc(NC(=S)Nc2ccc(S(=O)(=O)Nc3ccccn3)cc2)c1,5000
26,CN(C)/C=C/C(=O)c1cccc(NC(=S)Nc2ccc(S(=O)(=O)Nc3ccccn3)cc2)c1,5500
27,O=C(/C=C/NCc1ccccc1)c1cccc(NC(=S)Nc2ccc(S(=O)(=O)Nc3ccccn3)cc2)c1,2500
28,O=C(/C=C/Nc1ccccn1)c1cccc(NC(=S)Nc2ccc(S(=O)(=O)Nc3ccccn3)cc2)c1,4700
29,COC(=O)/C=C(/C)N/C=C/C(=O)c1cccc(NC(=S)Nc2ccc(S(=O)(=O)Nc3ccccn3)cc2)c1,1500
30,CNC(=O)c1cc(Oc2ccc(NC(=O)Nc3ccc(Cl)c(C(F)(F)F)c3)cc2)ccn1 [SORAFENIB],1060
